Reference: paper PMC5263201, “GABAA receptor occupancy by subtype selective GABAAα2,3 modulators: PET studies in humans” (Psychopharmacology, 2016)
Where “and” joins values, the source holds several entries; their conditions need not be identical. Equal entries are not always repeated. Where two headings read alike, the source gives them in different places.

Assays:
[1] = design: method as in Chen et al. 2014, 2015; conditions: neurophysiological test battery; ref Chen et al. 2014, 2015; cited from earlier work
[2] = system: approximately 160 different ligand binding assays; assay: Battery of approximately 160 different ligand binding assays at 10 μM; conditions: active = ≥50% inhibition with an IC50 <1µM
[3] = Brain exposure in animals; assay type: in vivo
[4] = VAS alertness-sedation, Modified Wilson Sedation Scale, DSST; ref NCT00681317 and NCT00681915; cited from earlier work
[5] = Safety and tolerability in the PET studies; assay type: in vivo, human
Source text: Safety and tolerability assessments included records of adverse events, vital signs (blood pressure, heart rate), Allen’s test, ECG, clinical chemistry, hematology assessments, and urinalysis.

[6] = system: GABAA receptors (benzodiazepine binding site); assay: PET with [11C]flumazenil (HRRT): GABAA receptor occupancy; assay type: in vivo, human; conditions: for Occupancy (%) CER: cerebellum; for Occupancy (%) CER / Occupancy (%) OC / Occupancy (%) PUT / Occupancy (%) AMG: 1 h after drug administration; for Occupancy (%) OC: occipital cortex; for Occupancy (%) PUT: putamen; for Occupancy (%) AMG: amygdala
Protocol: Two separate open-label phase I PET studies were conducted in 2008–2009.
The initial study design included two sequential panels, with two subjects in each. The first panel was intended to obtain initial receptor occupancy values, to be used for dose selection in the second panel. […] The studies followed an adaptive design, i.e., doses and PET measurements were adjusted depending on the results of preceding measurements. […] To optimize quantification of the relationship between AZ6280 exposure and receptor occupancy, the number of subjects with the highest 40 mg dose was increased (Fig. 1).
The head of the subject was fixed using individual plaster helmet. A sterile physiological phosphate buffer (pH 7.4) solution containing [^11C]flumazenil was injected intravenously as a bolus during 2 s, immediately followed by flush with 10 ml saline. The injected radioactivity for [^11C]flumazenil was in the range of 330–350 MBq, (340 (9) MBq, mean, SD) in the study 1 and in the range of 317–363 MBq (335 (16) MBq) in the study 2. The specific radioactivity of the radioligand at time of injection ranged from 310 to 1465 GBq/μmol (730 (414) GBq/μmol, mean, SD) and from 464 to 1879 GBq/μmol (977 (424) GBq/μmol, mean, SD), for study 1 and study 2, respectively.
PET examinations were performed over 63 min (HRRT; Siemens/CTI). List mode data were reconstructed using the ordinary Poisson 3D ordered subset estimation maximization algorithm, with 10 iterations and 16 subsets including modeling of the point spread function (Varrone et al. [2009]) into a 4D PET image containing 33 consecutive time frames (9 × 10 s, 2 × 15 s, 3 × 20 s, 4 × 30 s, 4 × 60 s, 4 × 180 s, 7 × 360 s) with a 3D array of 256 × 256 × 207 voxels having a size of 1.22 × 1.22 × 1.22 mm.
The anatomical brain regions were delineated manually on the MR images using in-house image analysis software. The regions included cortical and striatal subregions, thalamus, cerebellum, limbic regions, pons, and whole brain. The following four regions were selected in the final analysis: The occipital cortex and cerebellum were chosen because of the highest GABAA receptor binding by [^11C]flumazenil and good imaging statistics and preferential distribution of α1/α2 receptor subtypes; the amygdala was chosen because of its role in the brain circuits involved in anxiety and putamen for preferential α1/α2/α3 versus α5 receptor subtypes (Lingford-Hughes et al. [2002]; Fatemi et al. [2013]; Waldvogel and Faull [2015]). For the pons, the ROI was drawn on horizontal projection on the six central slices. […] The concentration of radioactivity in each ROI, calculated for each sequential time frame and corrected for ^11C decay, was plotted versus time (TACs).
An index of neuronal GABAA receptor density or binding potential (BPND) was calculated using the simplified reference tissue model (Lammertsma and Hume [1996]) and pons as a reference region. The calculated receptor occupancy (%) was then correlated to drug exposure according to the following equation:1 Occupancy=Occmax×Cav,PET/Ki,plasma+Cav,PET
where Occmax is the maximal occupancy induced by drug, C av,PET is the total drug plasma concentration, and K i,plasma is the inhibition constant corresponding to the drug plasma concentration required for half-maximum receptor occupancy. Non-linear least squares curve fitting of the relationship between drug plasma concentration and receptor occupancy was performed using Matlab R2007b (http://de.mathworks.com). Regional data were fitted simultaneously to obtain a single estimate of K i,plasma and regionally different estimates of Occmax. Best fit estimate and confidence interval (95% CI) were obtained on the logarithmic scale.

[7] = Plasma pharmacokinetics after single oral doses in the PET studies; assay type: in vivo, human; conditions: for C av,PET: average plasma concentration at time of PET
Protocol: Venous blood samples for determination of drug plasma concentrations were collected at approximately 15 min before [^11C]flumazenil injection and at 15 and 30 min and 3, 4, 6, 8, 10, 12, 16, 24, 36, and 48 h after drug administration, including three samples during PET measurement, at 1, 1.30, and 2 h after drug administration.
Calculations of the pharmacokinetic parameters included the maximum plasma concentration (C max), the time to the maximum plasma concentration (T max), and the average drug plasma concentration during the PET measurement (C av,PET) (division of the partial area corresponding to the start and end times of PET assessment, AUCPET, by the duration of the PET measurement). The pharmacokinetic calculations were performed using non-compartmental analysis using WinNonlin™, Pharsight Corporation.

human MT1 receptor = human MT1 receptor (Homo sapiens, UniProt P48039); assay: MT1 receptor GTPγS studies; assay type: biochemical
human MT1 receptor, sequence (P48039 whole entry): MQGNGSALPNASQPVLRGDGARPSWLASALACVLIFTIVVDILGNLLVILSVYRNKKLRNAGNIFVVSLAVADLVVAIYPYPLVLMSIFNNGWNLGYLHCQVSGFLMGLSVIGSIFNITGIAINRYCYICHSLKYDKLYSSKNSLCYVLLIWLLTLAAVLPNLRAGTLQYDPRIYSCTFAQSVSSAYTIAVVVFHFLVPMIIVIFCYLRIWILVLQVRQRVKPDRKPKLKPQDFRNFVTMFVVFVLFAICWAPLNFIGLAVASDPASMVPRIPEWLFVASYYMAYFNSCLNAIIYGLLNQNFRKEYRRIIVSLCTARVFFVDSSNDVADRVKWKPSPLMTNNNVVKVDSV

[8] = AZD7325 single oral dose 0.2 mg

CCCNC(=O)c1nnc2c(-c3c(F)cccc3OC)cccc2c1N [AZD7325]
receptor occupancy up to which no cognitive or hypnotic side effects were observed [1]: up to 80%
activity in the battery of ligand binding assays [2]: only assays in which either compound was active were the melatonin Type 1 and Type 2 receptors
brain exposure [3]: good brain exposure
relationship between dose and alertness or cognitive performance [4]: no significant relationship
receptor occupancy at the doses/exposure at which adverse events were reported ([5]; AZD7325 5, 20 and 30 mg, AZD6280 20 mg and above): > 70%
high receptor occupancy reached without obvious sedative effects ([5]; PET studies): > 70%
CNS-related AEs ([5]; reported by three subjects at 20 and 30 mg and in one subject both at 20 and at 5 mg): dizziness, feeling hot, anhedonia, and hypoesthesia
calculated GABAA receptor occupancy at the highest doses ([6]; 20–30 mg AZD7325, occipital cortex and cerebellum): over 80%
Occupancy (%) CER [6, 8]: −5% and 3%
Occupancy (%) OC [6, 8]: −8% and 0.5%
Occupancy (%) CER ([6]; AZD7325 single oral dose 1 mg): 43% and 25%
Occupancy (%) CER ([6]; AZD7325 single oral dose 2 mg): 45% and 60%
Occupancy (%) OC ([6]; AZD7325 single oral dose 2 mg): 24% and 42%
Occupancy (%) PUT ([6]; AZD7325 single oral dose 2 mg): 28% and 26%
Occupancy (%) AMG ([6]; AZD7325 single oral dose 5 mg): 16% and 26%
Occupancy (%) CER ([6]; AZD7325 single oral dose 5 mg): 85% and 82%
Occupancy (%) OC ([6]; AZD7325 single oral dose 5 mg): 77% and 67%
Occupancy (%) PUT ([6]; AZD7325 single oral dose 5 mg): 40% and 37%
Occupancy (%) CER ([6]; AZD7325 single oral dose 20 mg): 77% and 95%
Occupancy (%) OC ([6]; AZD7325 single oral dose 20 mg): 75% and 85%
Occupancy (%) PUT ([6]; AZD7325 single oral dose 20 mg): 41% and 46%
Occupancy (%) AMG ([6]; AZD7325 single oral dose 30 mg): 37%
Occupancy (%) CER ([6]; AZD7325 single oral dose 30 mg): 89%
Occupancy (%) OC ([6]; AZD7325 single oral dose 30 mg): 82%
Occupancy (%) PUT ([6]; AZD7325 single oral dose 30 mg): 52%
C av,PET [7, 8]: 1.74 nM and 2.93 nM
Cmax ([7]; AZD7325 single oral dose 0.2 mg, individual subjects, read-out: C max): 4.12 nM
T max ([7]; AZD7325 single oral dose 1 mg, individual subjects): 1.0 h
Cmax ([7]; AZD7325 single oral dose 1 mg, individual subjects, read-out: C max): 5.19 nM and 12.8 nM
T max ([7]; AZD7325 single oral dose 2 mg, individual subjects): 1.1 h
Cmax ([7]; AZD7325 single oral dose 2 mg, individual subjects, read-out: C max): 5.19 nM and 21.4 nM
C av,PET ([7]; AZD7325 single oral dose 5 mg): 46.28 nM and 39.22 nM
T max ([7]; AZD7325 single oral dose 5 mg, individual subjects): 1.0 h
Cmax ([7]; AZD7325 single oral dose 5 mg, individual subjects, read-out: C max): 44 nM
Cmax ([7]; AZD7325 single oral dose 20 mg, individual subjects, read-out: C max): 302 nM
C av,PET ([7]; AZD7325 single oral dose 30 mg): 265.25 nM
Cmax ([7]; human, plasma, oral, range over all doses and subjects, read-out: range for peak exposures, Cmax): 0.81 to 109 ng/mL
Tmax ([7]; human, plasma, po, 0.2 mg, AZD7325 single oral dose 0.2 mg, individual subjects): 0.5 h
Cmax ([7]; human, plasma, po, 0.2 mg, AZD7325 single oral dose 0.2 mg, individual subjects, read-out: C max): 2.29 nM
Tmax ([7]; human, plasma, po, 1 mg, AZD7325 single oral dose 1 mg, individual subjects): 1.8 h
Tmax ([7]; human, plasma, po, 2 mg, AZD7325 single oral dose 2 mg, individual subjects): 1.3 h
Cmax ([7]; human, plasma, po, 5 mg, AZD7325 single oral dose 5 mg, individual subjects, read-out: C max): 50.2 nM
Tmax ([7]; human, plasma, po, 20 mg, AZD7325 single oral dose 20 mg, individual subjects): 3 h
Cmax ([7]; human, plasma, po, 20 mg, AZD7325 single oral dose 20 mg, individual subjects, read-out: C max): 213 nM
Tmax ([7]; human, plasma, po, 30 mg, AZD7325 single oral dose 30 mg, individual subject): 2.2 h
Cmax ([7]; human, plasma, po, 30 mg, AZD7325 single oral dose 30 mg, individual subject, read-out: C max): 308 nM
Emax (human MT1 receptor): 90%
